Assay results reported in US20100144763A1, “Pharmaceutical composition for inhibiting topoisomerase I and method for exploiting drug” (priority 2008, published 2010).

How the values were obtained:
[1] = biological target: T1, DNA TopoI from the vaccinia virus (Vaccinia virus, UniProt P68698); format: biochemical
T1 construct: purchased EPICENTRE Biotechnologies, Madison, Wis

[2] = biological target: T2, TopoI-DNA complex in 3H-thymidine-labeled MCF-7 cells (Homo sapiens, UniProt P11387); assay: KCl/SDS precipitation assay, TopoI-DNA complex trapping; format: cell-based; settings: 30 μM, 60 minutes, FIG. 4
T2 construct: endogenous in cells; host or cells: MCF-7
T2 sequence (P11387 1-765): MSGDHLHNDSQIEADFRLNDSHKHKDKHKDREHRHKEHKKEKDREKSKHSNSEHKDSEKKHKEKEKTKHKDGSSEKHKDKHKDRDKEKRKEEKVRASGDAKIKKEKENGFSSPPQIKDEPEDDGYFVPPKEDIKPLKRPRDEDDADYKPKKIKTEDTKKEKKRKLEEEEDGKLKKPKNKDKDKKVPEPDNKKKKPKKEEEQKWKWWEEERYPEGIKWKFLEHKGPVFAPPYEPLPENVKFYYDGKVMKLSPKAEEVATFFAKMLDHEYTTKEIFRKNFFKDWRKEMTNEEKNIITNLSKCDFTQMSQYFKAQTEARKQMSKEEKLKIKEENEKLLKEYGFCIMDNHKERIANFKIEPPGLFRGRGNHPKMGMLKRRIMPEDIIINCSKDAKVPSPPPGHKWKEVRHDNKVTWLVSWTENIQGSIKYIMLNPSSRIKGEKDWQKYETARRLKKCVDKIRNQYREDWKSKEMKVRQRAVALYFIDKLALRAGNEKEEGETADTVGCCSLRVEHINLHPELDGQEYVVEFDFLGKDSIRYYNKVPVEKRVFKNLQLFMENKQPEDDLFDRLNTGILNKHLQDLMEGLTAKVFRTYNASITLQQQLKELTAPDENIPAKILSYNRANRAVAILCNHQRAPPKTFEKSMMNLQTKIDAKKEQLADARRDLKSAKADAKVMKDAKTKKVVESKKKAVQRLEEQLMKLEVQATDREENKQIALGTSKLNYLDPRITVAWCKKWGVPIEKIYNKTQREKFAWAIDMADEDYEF
Procedure: Example 4 relates to using a KCl/SDS precipitation assay to show TopoI-DNA complex trapping activity of EVO according to the present invention. The formation of a cleavable complex in intact cells is quantified by a KCl-sodium dodecylsulfate (SDS) precipitation technique, a modified procedure described previously by Yoshinari et al. (1993). Cellular DNA is labeled by adding ^3H-thymidine to the medium to a final concentration of 10 μCi/ml. After an overnight incubation, cells are plated to a density of 1×10^5 cells/well in a 24-well plate for another overnight incubation, and treated with various concentrations of EVO (0˜30 μM) for 60 minutes. The medium is removed from each well, and cells are washed with phosphate-buffered saline (PBS) and lysed with 1 ml of prewarmed (65° C.) lysis solution (1.25% SDS, 5 mM EDTA, 0.4 mg/ml salmon sperm DNA). Lysate is sheared using a 21-gauge needle. The samples as background control are treated by the above procedure but with proteinase K (400 μg/ml) in the lysis buffer, and are incubated at 50° C. for 2 hour. KCl (325 mM), at 250 μl, is added to each sample, vortexed vigorously, cooled on ice for 10 minutes, and centrifuged at 2500 rpm for 10 minutes at 4° C. […] The pellet is resuspended in 400 μl prewarmed H2O (65° C.) and combined with 4 ml scintillation liquid, and the radioactivity counts are determined using a liquid scintillation counter. […]

[3] = biological target: T3, free-form TopoI in MCF-7 cells (Homo sapiens, UniProt P11387); assay: depletion assay for free-form TopoI (immunoblotting); format: cell-based
T3 construct: endogenous in cells; host or cells: MCF-7
T3 sequence (P11387 1-765): T2 sequence (P11387 1-765)
Procedure: Example 3 relates to detection of the levels of free-form TopoI from breast cancer cells reduced by EVO according to the present invention. Provided that EVO is able to fix TopoI on DNA, the level of free-form TopoI should be decreased. Monolayers that are breast cancer MCF-7 cells of 50%—80% confluent are treated with drugs for a short time, and then cellular proteins are extracted from the MCF-7 cells. After that, the cellular proteins are separated electrophoretically in a 7.5% SDS polyacrylamide gel and electro-transferred to a polyvinylidene difluoride (PVDF) membrane. The membrane is incubated with the primary antibody (rabbit anti-human topoisomerase I antisera) at room temperature for 2 hours, and then incubated with a horseradish peroxidase-conjugated secondary immunoglobulin G (IgG) antibody. The immunoreactive bands are visualized with enhanced chemiluminescent reagents and photographed using a gel documentation system.
A depletion assay for free-form TopoI is performed to confirm the effect of EVO on DNA topological catalysis of TopoI. This assay is based on the ability of CPT to trap TopoI and DNA to form a CPT-TopoI-DNA triple complex, to see if EVO inhibits TopoI activity through a similar mechanism. […] Depletion of TopoI protein by EVO is also detected in a concentration-dependent manner after 1 hour of treatment. […]

[4] = biological target: T4, purified recombinant eukaryotic TopoI (Homo sapiens, UniProt P11387); format: biochemical; settings: supercoiled DNA relaxation, TopoI prepared from recombinant DNA
T4 sequence (P11387 1-765): T2 sequence (P11387 1-765)

[5] = system: human breast MCF-7 carcinoma cells; assay: MTT assay, cell growth inhibition / cytotoxicity; format: cell-based; settings: MCF7, 24 h, read-out: IC50, cytotoxicity
Procedure: Example 1 relates to cell growth inhibition of EVO according to the present invention. Breast cancer MCF-7 cells are cultured in Dulbecco's modified Eagle medium (DMEM) supplemented with 10% heat-inactivated fetal bovine serum (FBS), and 100 μg/ml penicillin-streptomycin. Conditions were maintained in a humidified 95% air/5% CO2 incubator at 37° C. The MTT [3-(4,5-dimethylthiazol-2-yl)-2,5-diphenyl tetrazolium bromide] assay was described previously to test the cytotoxicity of reagents and cell viability (Lin, Tsai, Chen, Chang, Lee et al., 2008). Cells (5000 cells/well) are grown on a 96-well plate supplemented with DMEM medium (with 1% FBS) for 24 hours. Then, cells are treated with CPT or EVO ([…]), and the viability is determined by the reduction of MTT. An MTT stock solution (5 mg of MTT/ml of PBS) is added to the growing cultures (at a final concentration of 0.5 mg/ml). The OD is measured with a spectrophotometer at 560 nm. A blank with DMSO alone is measured and subtracted from all values.
The cytotoxic abilities of EVO and CPT are tested against human breast MCF-7 carcinoma cells, which express high levels of TopoI. CPT is used as a reference drug. Both compounds display efficient cytotoxicity after 24 h of drug exposure. […] Consequently, EVO is slightly less cytotoxic than CPT against breast MCF-7 carcinoma cells.

Row | SMILES | inhibition of supercoiled plasmid DNA relaxation catalyzed by TopoI [1] | 3H-thymidine-labeled DNA trapped in a covalent complex with TopoI [2] | relative level of DNA-unlinked TopoI protein versus the control ([3]; 0˜10 μM, 1 hour of treatment, FIG. 3B) | TopoI protein level in comparison to the untreated control ([3]; 10 μM, 120-minute treatment, FIG. 3A) | inhibition activity toward purified recombinant eukaryotic TopoI [4] | IC50 [5] | inhibitory activity on TopoI catalytic supercoiled plasmid relaxation, compared with CPT and EVO [1]
1 | CN1c2ccccc2C(=O)N2CCc3c([nH]c4ccccc34)C21 (stereo not drawn) [EVO, Evodiamine] | inhibitory activity on TopoI catalytic relaxation in a dose-dependent manner | 43.6% | < 40% | < 20% | inhibited | 6.02 µM | –
2 | CC[C@@]1(O)C(=O)OCc2c1cc1n(c2=O)Cc2cc3ccccc3nc2-1 [CPT, Camptothecin, reference compound] | retain a greater amount of uncatalytic supercoiled DNA in a dose-dependent manner | – | – | – | – | 3.23 µM | –
3 | O=c1c2ccccc2nc2n1CCc1c-2[nH]c2ccccc12 [rutaecarpine] | – | – | – | – | – | – | substantially equivalent to those of CPT and EVO
